# Reference: patent US20230233569A1 (Revolution Medicines, Inc., priority 2020, published 2023)
# Read-outs that look alike come from different tables or passages of the source.
# Experiments:
# Capan-1 (K-Ras G12V) = assay: CellTiter-Glo cell viability assay, 5-day treatment; format: cell-based; settings: Homo sapiens, CAPAN-1, 120 h, 5-day treatment; read-out: Capan-1 Cell Viability assay data (K-Ras G12V, IC50)
# Procedure, shortened: (§1)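 Five-day compound treatment of plated cells; luminescent read after ~30 min at RT. Percent-of-DMSO data fit to a four-parameter logistic model.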
# NCI-H358 (K-Ras G12C) = assay: as above; format: cell-based; settings: Homo sapiens, NCI-H358, 120 h, 5-day treatment; read-out: H358 Cell Viability assay data (K-Ras G12C, IC50)
# Procedure, shortened: as §1
# KRAS G12C = KRAS G12C (Homo sapiens, UniProt P01116+P62937, G12C); assay: Disruption of BRAF RBD interaction with Ras (FRET / MOA assay, with Cyclophilin A); format: biochemical
# Sequence of KRAS G12C (P01116 1-169 isoform P01116-2 G12C): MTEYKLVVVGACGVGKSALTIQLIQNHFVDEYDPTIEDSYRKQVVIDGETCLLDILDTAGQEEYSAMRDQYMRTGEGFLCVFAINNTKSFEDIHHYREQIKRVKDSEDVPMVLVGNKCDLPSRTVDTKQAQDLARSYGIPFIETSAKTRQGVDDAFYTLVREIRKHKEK
# Sequence of KRAS G12C (P62937 whole entry): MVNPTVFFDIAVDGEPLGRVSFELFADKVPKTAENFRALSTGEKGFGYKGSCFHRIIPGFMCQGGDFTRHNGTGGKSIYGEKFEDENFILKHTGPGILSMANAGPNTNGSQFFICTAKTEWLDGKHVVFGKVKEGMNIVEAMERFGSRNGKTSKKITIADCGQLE
# Procedure, shortened: (§2)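 IC50 values reflect loss of K-Ras binding to BRAF RBD, read as a lowered TR-FRET ratio compared with DMSO, driven by compound-mediated K-Ras:Cyclophilin A complex formation. Compound top dose 30 μM final, 3-fold steps, 3 h incubation at 25 °C before a 1.5 h antibody step.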
# KRAS G12D = KRAS G12D (Homo sapiens, UniProt P01116+P62937, G12D); assay: as above; format: biochemical
# Sequence of KRAS G12D (P01116 1-169 isoform P01116-2 G12D limits assumed): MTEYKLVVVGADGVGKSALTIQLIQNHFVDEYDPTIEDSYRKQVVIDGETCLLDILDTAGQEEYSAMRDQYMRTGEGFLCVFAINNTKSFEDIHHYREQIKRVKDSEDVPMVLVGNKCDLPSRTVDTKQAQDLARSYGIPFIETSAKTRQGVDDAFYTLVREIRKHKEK
# Sequence of KRAS G12D (P62937 whole entry): as the sequence (P62937 whole entry) above
# Procedure, shortened: as §2
# KRAS G12S = KRAS G12S (Homo sapiens, UniProt P01116+P62937, G12S); assay: as above; format: biochemical
# Sequence of KRAS G12S (P01116 1-169 isoform P01116-2 G12S limits assumed): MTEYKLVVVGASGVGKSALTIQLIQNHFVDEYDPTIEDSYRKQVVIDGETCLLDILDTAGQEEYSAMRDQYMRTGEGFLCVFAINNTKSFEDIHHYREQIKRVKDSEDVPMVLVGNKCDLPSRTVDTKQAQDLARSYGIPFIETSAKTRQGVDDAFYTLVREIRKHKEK
# Sequence of KRAS G12S (P62937 whole entry): as the sequence (P62937 whole entry) above
# Procedure, shortened: as §2
# KRAS G12V = KRAS G12V (Homo sapiens, UniProt P01116+P62937, G12V); assay: as above; format: biochemical
# Sequence of KRAS G12V (P01116 1-169 isoform P01116-2 G12V limits assumed): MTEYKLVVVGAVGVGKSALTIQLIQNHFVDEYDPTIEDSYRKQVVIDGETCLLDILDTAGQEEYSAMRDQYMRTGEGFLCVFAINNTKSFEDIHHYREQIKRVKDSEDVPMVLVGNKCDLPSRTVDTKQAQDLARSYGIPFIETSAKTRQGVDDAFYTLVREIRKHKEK
# Sequence of KRAS G12V (P62937 whole entry): as the sequence (P62937 whole entry) above
# Procedure, shortened: as §2
# KRAS G13C = KRAS G13C (Homo sapiens, UniProt P01116+P62937, G13C); assay: as above; format: biochemical
# Sequence of KRAS G13C (P01116 1-169 isoform P01116-2 G13C): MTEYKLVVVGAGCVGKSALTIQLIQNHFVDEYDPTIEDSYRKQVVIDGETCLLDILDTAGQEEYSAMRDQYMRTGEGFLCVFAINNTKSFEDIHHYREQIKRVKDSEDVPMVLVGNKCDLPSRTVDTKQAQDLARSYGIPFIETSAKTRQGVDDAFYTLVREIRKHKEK
# Sequence of KRAS G13C (P62937 whole entry): as the sequence (P62937 whole entry) above
# Procedure, shortened: as §2
# KRAS G13D = KRAS G13D (Homo sapiens, UniProt P01116+P62937, G13D); assay: as above; format: biochemical
# Sequence of KRAS G13D (P01116 1-169 isoform P01116-2 G13D limits assumed): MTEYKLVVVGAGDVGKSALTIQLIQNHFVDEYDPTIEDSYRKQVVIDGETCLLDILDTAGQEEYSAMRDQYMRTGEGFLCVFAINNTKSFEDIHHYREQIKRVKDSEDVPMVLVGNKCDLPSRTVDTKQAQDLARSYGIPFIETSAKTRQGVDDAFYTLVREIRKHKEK
# Sequence of KRAS G13D (P62937 whole entry): as the sequence (P62937 whole entry) above
# Procedure, shortened: as §2
# KRAS WT = KRAS WT (Homo sapiens, UniProt P01116+P62937); assay: as above; format: biochemical
# Sequence of KRAS WT (P01116 1-169 isoform P01116-2 limits assumed): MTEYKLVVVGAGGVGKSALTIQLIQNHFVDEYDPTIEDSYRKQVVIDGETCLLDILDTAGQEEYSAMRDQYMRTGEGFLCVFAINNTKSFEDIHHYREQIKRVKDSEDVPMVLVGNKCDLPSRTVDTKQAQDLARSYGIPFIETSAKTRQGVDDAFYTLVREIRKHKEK
# Sequence of KRAS WT (P62937 whole entry): as the sequence (P62937 whole entry) above
# Procedure, shortened: as §2
# NRAS G12C = NRAS G12C (Homo sapiens, UniProt P01111+P62937, G12C); assay: as above; format: biochemical
# Sequence of NRAS G12C (P01111 whole entry G12C): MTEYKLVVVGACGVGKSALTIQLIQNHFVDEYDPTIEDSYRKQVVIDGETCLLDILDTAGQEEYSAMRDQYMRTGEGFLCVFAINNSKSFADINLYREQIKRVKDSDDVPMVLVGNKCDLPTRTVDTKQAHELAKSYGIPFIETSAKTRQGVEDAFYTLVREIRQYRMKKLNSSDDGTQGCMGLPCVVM
# Sequence of NRAS G12C (P62937 whole entry): as the sequence (P62937 whole entry) above
# [1] = read-out: KRAS G12C FRET data, IC50
# [2] = read-out: KRAS G12D FRET data, IC50
# [3] = read-out: KRAS G12S FRET data, IC50
# [4] = KRAS G12V, read-out: KRAS G12V FRET data IC50
# [5] = read-out: KRAS G13C FRET data, IC50
# [6] = KRAS G13D, read-out: KRAS G13D FRET data IC50
# [7] = KRAS WT, read-out: KRAS WT FRET data IC50
# [8] = NRAS G12C, read-out: NRAS G12C FRET data IC50
Structure (SMILES),IC50 (Capan-1 (K-Ras G12V)) [nM],IC50 (NCI-H358 (K-Ras G12C)) [nM],IC50 (KRAS G12C; [1]) [nM],IC50 (KRAS G12D; [2]) [nM],IC50 (KRAS G12S; [3]) [nM],IC50 (KRAS G12V; [4]) [nM],IC50 (KRAS G13C; [5]) [nM],IC50 (KRAS G13D; [6]) [nM],IC50 (KRAS WT; [7]) [nM],IC50 (NRAS G12C; [8]) [nM],"IC50 (KRAS G12C; KRAS G12C FRET data, IC50) [nM]","IC50 (KRAS G12D; KRAS G12D FRET data, IC50) [nM]","IC50 (KRAS G12S; KRAS G12S FRET data, IC50) [nM]","IC50 (KRAS G12V; KRAS G12V FRET data IC50, KRAS G12V) [nM]","IC50 (KRAS G13C; KRAS G13C FRET data, IC50) [nM]","IC50 (KRAS G13D; KRAS G13D FRET data IC50, KRAS G13D) [nM]","IC50 (KRAS WT; KRAS WT FRET data IC50, KRAS WT) [nM]","IC50 (NRAS G12C; NRAS G12C FRET data IC50, NRAS G12C) [nM]"
CCn1c(-c2cccnc2[C@H](C)OC)c2c3cc(ccc31)-c1cc(O)cc(c1)C[C@H](NC(=O)[C@H](C(C)C)N(C)C(=O)C1CNC1)C(=O)N1CCC[C@H](N1)C(=O)OCC(C)(C)C2 [Example A125],1000 to 10000,1000 to 10000,10 to 100,10 to 100,10 to 100,100 to 1000,10 to 100,10 to 100,10 to 100,10 to 100,,,,,,,,
CCn1c(-c2cccnc2[C@H](C)OC)c2c3cc(ccc31)-c1cc(O)cc(c1)C[C@H](NC(=O)[C@H](C(C)C)N(C)C(=O)Cc1cc[nH]n1)C(=O)N1CCC[C@H](N1)C(=O)OCC(C)(C)C2 [Example A126],100 to 1000,100 to 1000,10 to 100,100 to 1000,100 to 1000,100 to 1000,10 to 100,100 to 1000,10 to 100,100 to 1000,,,,,,,,
CCn1c(-c2cccnc2[C@H](C)OC)c2c3cc(ccc31)-c1cc(O)cc(c1)C[C@H](NC(=O)[C@H](C(C)C)N(C)C(=O)[C@H]1CCN[C@H]1C)C(=O)N1CCC[C@H](N1)C(=O)OCC(C)(C)C2 [Example A127],> 10000,1000 to 10000,10 to 100,10 to 100,10 to 100,100 to 1000,10 to 100,10 to 100,10 to 100,10 to 100,,,,,,,,
CCn1c(-c2cccnc2[C@H](C)OC)c2c3cc(ccc31)-c1cc(O)cc(c1)C[C@H](NC(=O)[C@H](C(C)C)N(C)C(=O)[C@@H]1CCNC1)C(=O)N1CCC[C@H](N1)C(=O)OCC(C)(C)C2 [Example A129],1000 to 10000,1000 to 10000,10 to 100,10 to 100,10 to 100,100 to 1000,10 to 100,10 to 100,10 to 100,10 to 100,,,,,,,,
CCn1c(-c2cccnc2[C@H](C)OC)c2c3cc(ccc31)-c1cc(O)cc(c1)C[C@H](NC(=O)[C@H](C(C)C)N(C)C(=O)C1CC3CC1CN3)C(=O)N1CCC[C@H](N1)C(=O)OCC(C)(C)C2 (some centres unmarked) [Example A133],> 10000,> 10000,100 to 1000,10 to 100,100 to 1000,1000 to 10000,10 to 100,10 to 100,100 to 1000,100 to 1000,,,,,,,,
CCn1c(-c2cccnc2[C@H](C)OC)c2c3cc(ccc31)-c1cc(O)cc(c1)C[C@H](NC(=O)[C@H](C(C)C)N(C)C(=O)[C@H]1CCCN[C@@H]1C)C(=O)N1CCC[C@H](N1)C(=O)OCC(C)(C)C2 [Example A134],> 10000,1000 to 10000,100 to 1000,10 to 100,100 to 1000,1000 to 10000,10 to 100,10 to 100,100 to 1000,100 to 1000,,,,,,,,
CCn1c(-c2cccnc2[C@H](C)OC)c2c3cc(ccc31)-c1csc(n1)C[C@H](NC(=O)[C@H](C(C)C)N(C)C(=O)NC)C(=O)N1CCC[C@H](N1)C(=O)OCC(C)(C)C2 [Example A137],100 to 1000,100 to 1000,100 to 1000,1000 to 10000,1000 to 10000,100 to 1000,1000 to 10000,1000 to 10000,100 to 1000,100 to 1000,,,,,,,,
CCn1c(-c2cccnc2[C@H](C)OC)c2c3cc(ccc31)-c1csc(n1)C[C@H](NC(=O)[C@H](C1CCCC1)N(C)C(C)=O)C(=O)N1CCC[C@H](N1)C(=O)OCC(C)(C)C2 [Example A141],10 to 100,10 to 100,1000 to 10000,> 10000,1000 to 10000,1000 to 10000,1000 to 10000,1000 to 10000,1000 to 10000,1000 to 10000,,,,,,,,
CCn1c(-c2cccnc2[C@H](C)OC)c2c3cc(ccc31)-c1csc(n1)C[C@H](NC(=O)[C@H](C(C)C)N(C)C(=O)[C@@H]1OCC[C@@H]1C)C(=O)N1CCC[C@H](N1)C(=O)OCC(C)(C)C2 [Example A143],100 to 1000,100 to 1000,1000 to 10000,> 10000,1000 to 10000,1000 to 10000,1000 to 10000,1000 to 10000,1000 to 10000,1000 to 10000,,,,,,,,
CCn1c(-c2cccnc2[C@H](C)OC)c2c3cc(ccc31)-c1cc(O)cc(c1)C[C@H](NC(=O)[C@H](C(C)C)N(C)C(=O)[C@H]1C[C@H]1C)C(=O)N1CCC[C@H](N1)C(=O)OCC(C)(C)C2 [Example A146],100 to 1000,100 to 1000,10 to 100,100 to 1000,100 to 1000,10 to 100,10 to 100,100 to 1000,10 to 100,10 to 100,,,,,,,,
CCn1c(-c2cccnc2[C@H](C)OC)c2c3cc(ccc31)-c1cc(O)cc(c1)C[C@H](NC(=O)[C@H](C(C)C)N(C)C(=O)[C@@H]1C[C@H]1C)C(=O)N1CCC[C@H](N1)C(=O)OCC(C)(C)C2 [Example A147],100 to 1000,10 to 100,10 to 100,100 to 1000,10 to 100,10 to 100,10 to 100,100 to 1000,10 to 100,10 to 100,,,,,,,,
CCn1c(-c2cccnc2[C@H](C)OC)c2c3cc(ccc31)-c1cc(O)cc(c1)C[C@H](NC(=O)[C@H](C(C)C)N(C)C(=O)C1CC13CCNC3)C(=O)N1CCC[C@H](N1)C(=O)OCC(C)(C)C2 (some centres unmarked) [Example A148],1000 to 10000,1000 to 10000,10 to 100,10 to 100,10 to 100,100 to 1000,10 to 100,10 to 100,10 to 100,10 to 100,,,,,,,,
CCn1c(-c2cccnc2[C@H](C)OC)c2c3cc(ccc31)-c1cc(O)cc(c1)C[C@H](NC(=O)[C@H](C(C)C)N(C)C(=O)C13CNCC1C3)C(=O)N1CCC[C@H](N1)C(=O)OCC(C)(C)C2 (some centres unmarked) [Example A155],1000 to 10000,100 to 1000,10 to 100,100 to 1000,100 to 1000,100 to 1000,10 to 100,10 to 100,10 to 100,100 to 1000,,,,,,,,
CCn1c(-c2cccnc2[C@H](C)OC)c2c3cc(ccc31)-c1cc(O)cc(c1)C[C@H](NC(=O)[C@H](C(C)C)N(C)C(=O)C1CC13CC3)C(=O)N1CCC[C@H](N1)C(=O)OCC(C)(C)C2 (some centres unmarked) [Example A156],10 to 100,10 to 100,10 to 100,100 to 1000,10 to 100,10 to 100,10 to 100,100 to 1000,10 to 100,10 to 100,,,,,,,,
CCn1c(-c2cccnc2[C@H](C)OC)c2c3cc(ccc31)-c1cc(O)cc(c1)C[C@H](NC(=O)[C@H](C(C)C)N(C)C(=O)[C@@H]1CC1(C)C)C(=O)N1CCC[C@H](N1)C(=O)OCC(C)(C)C2 [Example A157],100 to 1000,100 to 1000,10 to 100,100 to 1000,100 to 1000,100 to 1000,100 to 1000,100 to 1000,10 to 100,10 to 100,,,,,,,,
CCn1c(-c2cccnc2[C@H](C)OC)c2c3cc(ccc31)-c1cc(O)cc(c1)C[C@H](NC(=O)[C@H](C(C)C)N(C)C(=O)[C@H]1CC1(F)F)C(=O)N1CCC[C@H](N1)C(=O)OCC(C)(C)C2 [Example A166],100 to 1000,100 to 1000,10 to 100,100 to 1000,100 to 1000,100 to 1000,10 to 100,100 to 1000,10 to 100,10 to 100,,,,,,,,
CCn1c(-c2cccnc2[C@H](C)OC)c2c3cc(ccc31)-c1cc(O)cc(c1)C[C@H](NC(=O)[C@H](C(C)C)N(C)C(=O)[C@@H]1CC1(F)F)C(=O)N1CCC[C@H](N1)C(=O)OCC(C)(C)C2 [Example A167],100 to 1000,100 to 1000,,,,,,,,,100 to 1000,100 to 1000,100 to 1000,100 to 1000,100 to 1000,100 to 1000,100 to 1000,100 to 1000
